For 1 sequence, ABA content, JA content and SA content results are on record in patent publication US20250197461A1, “Insect-derived short peptide for improving abscisic acid (ABA) content in cruciferous plant” (Gannan Normal University, priority 2023, published 2025).

The test system of the assay is Arabidopsis thaliana. As to the kind of experiment: Phytohormone detection in Arabidopsis thaliana leaves treated with short peptide (LC-MS/MS). In kind it is in vivo. As to conditions: 0.01 mg/mL; for ABA content / JA content: compared with GFP control group. As to the method: A synthetic short peptide of GSS1-PI with the corresponding concentration and mass was weighed and dissolved in 0.1% DMSO to obtain a 0.01 mg/mL treatment solution. A wild-type Arabidopsis thaliana plant of about four weeks old was taken, two cotyledons were collected and mechanically damaged to obtain three small holes, 2 μL of the GSS1-PI treatment solution was added dropwise into each small hole, while the control group was a solution of the same concentration prepared by synthesizing an unrelated short peptide GFP group (GFP-28aa: […], SEQ ID NO: 20) of the same length. After 24 h and 48 h of treatment, approximately 0.2 g of Arabidopsis thaliana leaves were collected, and each treatment had three biological replicates. The leaves were quickly placed in liquid nitrogen and stored in a −80° C. ultra-low temperature refrigerator for subsequent phytohormone group detection.
• a. The cryopreserved biological samples were ground with a grinder (30 Hz, 1 min) until they were in a powder form. • b. 50 mg of the ground sample was weighed and added with 10 μL of an internal standard mixed solution with a concentration of 100 ng/ml and 1 mL of an extractant including methanol/water/formic acid (15:4:1, v/v/v), and mixed well. • c. After vortexing for 10 min, a resulting mixture was centrifuged at 4° C. and 12,000 r/min for 5 min, and a resulting supernatant was transferred to a new centrifuge tube for concentration. • d. After concentration, the concentrated solution was reconstituted with 100 μL of 80% methanol/water solution, the reconstituted solution was filtered through a 0.22 μm filter, and the filtrate was placed in a sampling bottle for LC-MS/MS analysis.
The data acquisition instrument system mainly included ultra-performance liquid chromatography (UPLC) (ExionLC™ AD, //sciex.com.cn/) and tandem mass spectrometry (MS/MS) (QTRAP® 6500+, //sciex.com.cn/).
Liquid phase conditions mainly included: • 1) Chromatographic column: Waters ACQUITY UPLC HSS T3 C18 column (1.8 μm, 100 mm×2.1 mm i.d.); • 2) Mobile phase: phase A, ultrapure water (added with 0.04% acetic acid); phase B, acetonitrile (added with 0.04% acetic acid); • 3) Gradient elution program: 0 min A/B at 95:5 (V/V), 1.0 min A/B at 95:5 (V/V), 8.0 min at 5:95 (V/V), 9.0 min at 5:95 (V/V), 9.1 min at 95:5 (V/V), 12.0 min at 95:5 (V/V); • 4) Flow rate: 0.35 mL/min; column temperature: 40° C.; injection volume: 2 μL.
Electrospray ionization (ESI) ion source temperature was 550° C., the mass spectrometer voltage in the positive ion mode was 5,500 V, the mass spectrometer voltage in the negative ion mode was-4,500 V, and the curtain gas (CUR) was 35 psi. In the Q-Trap 6500+, each ion transition was scanned based on optimized declustering potential (DP) and collision energy (CE).
The quantificative analysis was accomplished using the multiple reaction monitoring mode (MRM, as shown below) of triple quadrupole mass spectrometry. […] And the non-target ion interference was eliminated, so that the quantification was more accurate and reproducible. After obtaining the mass spectrometry data of different samples, the chromatographic peaks of all target substances were integrated and quantitatively analyzed through the standard curve.

As for “PDYKQKLRDSKAWESLETIGIPLDADVM (insect-derived short peptide) [GSS1-PI]”, for the setting “24 h treatment”, the ABA content result is reported as “increased significantly” and the JA content entry is listed as “increased significantly”. Also, for the setting “48 h treatment”, the ABA content entry was “upward trend but no significant difference” and the JA content entry is given as “downward trend”. Moreover, for the setting “before and after treatment”, the SA content entry is given as “no significant change”.
